Experimental data taken from patent publication US20250302816A1, “DISRUPTION OF EPITHELIAL BARRIERS FOR MOLECULAR DELIVERY ENHANCEMENT OR EXTRACTION OF EXTRACELLULAR FLUIDS” (The University of Nottingham, priority 2022, published 2025).

How the values were obtained:
[1] = test system: diabetic rat model with increased retinal permeability; assay: Topical eye administration in diabetic rat model with increased vascular permeability; assay type: in vivo, Norway Brown rats; conditions: topical co-application vs Bevacizumab alone
[2] = test system: Calu-3 cells; assay: MTS assay of metabolic activity / cell viability; assay type: cell-based, human; conditions: 5 nM to 200 μM, 6 hours
Procedure: To assess 3OC12-HSL and C7 PQS molecules cytotoxicity on cell viability of Calu-3 cell layers and to monitor short-term cytotoxicity during experiments, Calu-3 cells were treated with 3OC12-HSL and C7 PQS, at concentrations 5 nM, 1 μM, 50 μM, 100 μM and 200 μM, for 6 hours. At the end of the treatment, cell viability (through measuring metabolic activity) of cultures was determined by chromogenic MTS assay.
The viability of Calu-3 cells was determined by a chromogenic MTS method based on the measuring of mitochondrial respiration, assessed by the reduction of 3-(4,5-dimethylthiazol-2-yl)-5-(3-carboxymethoxyphenyl)-2-(4-sulfophenyl)-2H-tetrazolium to formazan. Calu-3 cells were cultured in a 96-well plate (CellTiter 96® Aqueous, Promega) at a density of 10^4 cells per well and incubated at 37° C., 5% CO2 for 24 hours. After 24 hours, the medium was replaced with 100 μl of test compounds dissolved in HBSS and then cells were incubated for 6 hours. HBSS and Triton X-100 (0.1% v/v in HBSS) were used as the negative and positive controls respectively. Bathing solutions were then aspirated and cells washed with PBS. Then culture medium (100 μl at 37° C.) plus MTS reagent (20 μl) were added into each well and cells were incubated for 2 hours. Absorbance at 492 was measured using a Dynex absorbance microplate reader (Dynex Technologies, USA) and converted into a percentage metabolic rate.

[3] = test system: ZO-1; assay: ZO-1 immunostaining and confocal microscopy of Calu-3 cell layers; assay type: cell-based, human; conditions: 200 μM, one hour, vs vehicle 0.15% DMSO
Procedure: To visualise the effect of 3OC12-HSL and C7 PQS on tight junction integrity in Calu-3 cell layers, ZO-1, immunostaining and confocal microscopy was performed on cell layers treated by 200 μM 3OC12-HSL and C7 PQS and control (0.15% DMSO in HBSS) for one hour. Confluent cell monolayers were washed with PBS and fixed in 4% paraformaldehyde in PBS for approximately 10 min at room temperature. Cells were then washed 3 times with PBS and permeabilised by incubating with Triton X-100 (0.1% v/v in PBS) for 10 min. Cells were then washed with PBS, followed by the application of 1% BSA/PBS for approximately 1 hour. Thereafter, BSA/PBS solution was aspirated and replaced with mouse, anti-human ZO-1 (primary) antibody, diluted in 1% BSA/PBS to a final concentration of 100 μg/ml. Cell samples were incubated with the primary antibody for 2 hours. The primary antibody solution was then removed and cells washed with PBS (5 times). FITC-labelled goat, anti-mouse (secondary) antibody, diluted according to manufacturer's instructions in 1% BSA/PBS was then applied to the cells for 1 hour. The secondary antibody solution was then aspirated and cells washed with PBS three times. […]

[4] = test system: ARPE-19 cell layers; assay: Transwell drug transport across ARPE-19 cell layers with or without 3OC12-HSL; assay type: cell-based, human; conditions: 3OC12-HSL 200 μM
Procedure: FIG. 1: Macromolecular therapeutics transported across ARPE-19 cell layers in the absence and presence of 3OC12-HSL transported into the basolateral chamber over a period of five hours. Permeability experiments were initiated by applying 0.5 ml of the test solutions (250 μg/ml Aflibercept/Bevacizumab/or Doxorubicin diluted in HBSS/HEPES) to the apical side of the cells (donor compartment of the Transwell) with or without 3OC12-HSL (200 μM). Drug permeability was determined by sampling the basolateral solution at regular time intervals. Data points are expressed as means±SEM, derived from three replicates in triplicate. p values of <0.05 were considered statistically significant. *, ** and *** denote p<0.05, p<0.01 and p<0.001, respectively.
Calu-3 cells obtained from American Type Culture Collection, USA were cultured using Dulbecco's Modified Eagle Medium (DMEM) supplemented with penicillin (100 U/mL), streptomycin (0.1 mg/mL), amphotericin (0.25 μg/mL), non-essential amino acids (NEM, 1%) and Fetal Bovine Serum (FBS, 10% v/v, Sigma-Aldrich, UK). The human-derived RPE cell line ARPE-19 was obtained from American Type Culture Collection. Cells were grown in Dulbecco's Modified Eagle Medium: F12 (1:1; Gibco, Invitrogen, Carlsbad, CA), including 10% inactivated fetal bovine serum, 100 units/mL penicillin, 100 μg/mL streptomycin, and 2 mM L-glutamine (Sigma-Aldrich). Caco-2 cells were grown in complete culture medium (DMEM supplemented with 17% FBS and 1% antibiotic-antimycotic solution). All cells were kept in a water-jacketed incubator (model 3546, Forma Scientific, Inc., Marietta, OH, USA) maintained at 37° C. and an atmosphere of humidified air with 5% CO2. Medium was replaced every other day until cells reached the 80-90% confluence desired for re-plating or culturing mature, polarised barrier models.
When confluent, cells were seeded on Transwell® filters (12 mm diameter, 0.4 μm pore size; Corning Life Sciences, Holland) at 10^5 cells/cm^2. […]
Three polarised epithelial in-vitro tissue models, including lung epithelium (Calu-3), retinal pigment epithelium (ARPE-19) and intestinal epithelial (Caco-2) were used to study the efficiency of 200 μM 3OC12-HSL as a paracellular permeability enhancer for three different drugs: bevacizumab, aflibercept and doxorubicin (applied concentrations 250 μg/mL). The amount of drugs transported was determined via the conversion of fluorescence intensity to amount (μg or ng), using calibration curves constructed via serial standard dilutions. […]
Permeability experiments were initiated by applying 0.5 mL of the test solutions to the apical side of the cells (donor compartment of the Transwell®). […] Drug permeability was determined by sampling the basolateral solution at regular time intervals. […]

[5] = test system: MMP; assay: Fluorogenic MMP activity assay; assay type: cell-based, human
Procedure: FIG. 5: High-throughput MMP assay (MMP Activity Assay Kit (Fluorometric-Red), Abcam #ab112147) showing the normalised accumulation slope of FRET-based signal (Ex540: Em590 nm) read at 5 minute intervals for one hour in adherent Calu-3 cells cultured in glass-bottomed 96-well plates using a SpectraMax i3x/Biomek FXPP high-throughput platform. Each experiment was conducted in triplicate (error bars). Signal accumulation over time in each well was linearly fitted and the gradient of each fit was scaled against the gradient of the relevant positive control wells, to which active MMP was added directly (mixed isoforms, […]), to obtain the normalised accumulation slope.
To investigate the involvement of MMP in the disruption of tight junctions observed in the presence of 200 μM 3OC12-HSL and C7 PQS, a fluorogenic MMP activity assay was performed, using the Amplite™ Universal Fluorimetric MMP Activity Assay Kit. This kit is designed to check the general activity of a MMP enzyme.
Following treatment with 3OC12-HSL and C7 PQS respectively, the conditioned media were collected every hour from apical chamber and MMP activity was determined by using Amplite™ Universal Fluorimetric MMP Activity Assay Kit Green Fluorescence according to the manufacturer's instructions.
A fluorogenic MMP activity assay was carried out in the same manner on further agents.

CCCCCCCCCC(=O)CC(=O)N[C@H]1CCOC1=O [Agent 3OC12-HSL, N-(3-oxododecanoyl) homoserine lactone]
delivery of Bevacizumab into the posterior chamber of rat eyes (confocal images) [1]: significantly enhance | cytotoxic effect on cell viability within epithelial layers [2]: do not have an adverse cytotoxic effect | ZO-1 distribution at tight junctions [3]: considerable dislocation of ZO-1 proteins | increase of bevacizumab permeability by 3OC12-HSL ([4]; bevacizumab 250 μg/ml, at 60 minutes of exposure): 2.5 fold | enhancement of doxorubicin transport by 3OC12-HSL ([4]; doxorubicin 250 μg/ml, after 5 hours): 6 fold | MMP activation in apical samples taken at one-hour intervals ([5]; 200 μM, p<0.01, no fluorescence in control samples): significant MMP activation | period over which MMP activation increased before starting to reduce ([5]; samples taken hourly from apical chamber): 4 h
